Assay results reported in ChEMBL document CHEMBL5321210, “N-adamantyl-anthranil amide derivatives: New selective ligands for the cannabinoid receptor subtype 2 (CB2R)” (Eur J Med Chem, 2023).
Calls of active or inactive are those of the source. The rule behind the calls is not given here.

Tests used:
THP-1 [1] = test: Antiinflammatory activity against LPS-activated PMA-differentiated human THP-1 macrophages assessed as decrease in IL-6 production at 1 to 10 uM incubated for 24 hrs by ELISA coupled qRT-PCR analysis relative to control; assay type: functional; set-up: scale not given: the % may be the effect or the level left; conditions: dose 1-10 µM
THP-1 [2] = test: Antiinflammatory activity in PMA-differentiated human THP-1 macrophages assessed as increase in IL-10 production at 1 to 10 uM incubated for 24 hrs by ELISA coupled qRT-PCR analysis; assay type: functional, cell-based; conditions: dose 1-10 µM
Cannabinoid receptor 2 = Cannabinoid receptor 2 (Homo sapiens, UniProt P34972); test: Agonist activity at human CB2 receptor expressed in CHO-K1 cells assessed as inhibition of NKH-477 induced cAMP production by measuring maximal efficacy incubated for 30 mins by luminescence based analysis relative to control; assay type: functional, cell-based; conditions: filed as agonist
THP-1 [3] = test: Antiinflammatory activity in LPS-activated PMA-differentiated human THP-1 macrophages assessed as decrease in IL-6 production at 1 to 10 uM incubated for 24 hrs in the presence of JTE907 by ELISA coupled qRT-PCR analysis; assay type: functional, cell-based; conditions: dose 1-10 µM
THP-1 [4] = test: Antiinflammatory activity in human THP-1 monocytes assessed as decrease in TNF-alpha production at 1 to 10 uM incubated for 24 hrs in the presence of JTE907 by ELISA coupled qRT-PCR analysis; assay type: functional, cell-based; conditions: dose 1-10 µM
THP-1 [5] = test: Antiinflammatory activity in LPS-activated PMA-differentiated human THP-1 macrophages assessed as decrease in IFN-gamma production at 1 to 10 uM incubated for 24 hrs in the presence of JTE907 by ELISA coupled qRT-PCR analysis; assay type: functional, cell-based; conditions: dose 1-10 µM
THP-1 [6] = test: Antiinflammatory activity in PMA-differentiated human THP-1 macrophages assessed as reduction in TNF-alpha production at 1 to 10 uM incubated for 24 hrs by ELISA coupled qRT-PCR analysis relative to control; assay type: functional; set-up: scale not given: the % may be the effect or the level left; conditions: dose 1-10 µM
THP-1 [7] = test: Antiinflammatory activity in human THP-1 monocytes assessed as increase in IL-10 production incubated for 24 hrs by ELISA coupled qRT-PCR analysis; assay type: functional, cell-based; conditions: dose 1-10 µM
THP-1 [8] = test: Antiinflammatory activity in human THP-1 monocytes assessed as decrease in IFN-gamma production incubated for 24 hrs by ELISA coupled qRT-PCR analysis; assay type: functional, cell-based; conditions: dose 1-10 µM
THP-1 [9] = test: Antiinflammatory activity in LPS-activated PMA-differentiated human THP-1 macrophages assessed as increase in IL-4 production at 1 to 10 uM incubated for 24 hrs in the presence of JTE907 by ELISA coupled qRT-PCR analysis; assay type: functional, cell-based; conditions: dose 1-10 µM
THP-1 [10] = test: Antiinflammatory activity in PMA-differentiated human THP-1 macrophages assessed as increase in IL-4 production at 1 to 10 uM incubated for 24 hrs in the presence of JTE907 by ELISA coupled qRT-PCR analysis; assay type: functional, cell-based; conditions: dose 1-10 µM
THP-1 [11] = test: Antiinflammatory activity against LPS-activated PMA-differentiated human THP-1 macrophages assessed as decrease in IFN-gamma production at 1 to 10 uM incubated for 24 hrs by ELISA coupled qRT-PCR analysis relative to control; assay type: functional; set-up: scale not given: the % may be the effect or the level left; conditions: dose 1-10 µM
THP-1 [12] = test: Antiinflammatory activity in human THP-1 monocytes assessed as increase in IL-4 production at 1 to 10 uM incubated for 24 hrs in the presence of JTE907 by ELISA coupled qRT-PCR analysis; assay type: functional, cell-based; conditions: dose 1-10 µM
THP-1 [13] = test: Antiinflammatory against LPS-activated human THP-1 monocytes assessed as decrease in IL-6 production at 1 to 10 uM incubated for 24 hrs in the presence of JTE907 by ELISA coupled qRT-PCR analysis; assay type: functional, cell-based; conditions: dose 1-10 µM
THP-1 [14] = test: Antiinflammatory activity in human THP-1 monocytes assessed as increase in IL-4 production at 10 uM incubated for 24 hrs by ELISA coupled qRT-PCR analysis; assay type: functional, cell-based
THP-1 [15] = test: Antiinflammatory activity against LPS-activated PMA-differentiated human THP-1 monocytes assessed as decrease in TNF-alpha production at 10 uM incubated for 24 hrs in the presence of N-(adamantan-1-yl)-4-(pentylamino)-[1,1'-biphenyl]-3-carboxamide by ELISA coupled qRT-PCR analysis; assay type: functional, cell-based
THP-1 [16] = test: Antiinflammatory activity in PMA-differentiated human THP-1 macrophages assessed as decrease in IL-6 production at 10 uM incubated for 24 hrs in the presence of JTE907 by ELISA coupled qRT-PCR analysis; assay type: functional, cell-based
THP-1 [17] = test: Antiinflammatory activity against LPS-activated human THP-1 monocytes assessed as increase in IL-10 production at 10 uM incubated for 24 hrs in the presence of N-(adamantan-1-yl)-4-(pentylamino)-[1,1'-biphenyl]-3-carboxamide by ELISA coupled qRT-PCR analysis; assay type: functional, cell-based
THP-1 [18] = test: Antiinflammatory activity in human THP-1 monocytes assessed as decrease in IFN-gamma production at 10 uM incubated for 24 hrs in the presence of N-(adamantan-1-yl)-4-(pentylamino)-[1,1'-biphenyl]-3-carboxamide by ELISA coupled qRT-PCR analysis; assay type: functional, cell-based
THP-1 [19] = test: Antiinflammatory activity in PMA-differentiated human THP-1 macrophages assessed as reduction in TNF-alpha production at 10 uM incubated for 24 hrs by ELISA coupled qRT-PCR analysis relative to control; assay type: functional; set-up: scale not given: the % may be the effect or the level left
THP-1 [20] = test: Antiinflammatory activity in LPS-activated PMA-differentiated human THP-1 macrophages assessed as decrease in IL-1beta production at 10 uM incubated for 24 hrs in the presence of JTE907 by ELISA coupled qRT-PCR analysis; assay type: functional, cell-based
THP-1 [21] = test: Antiinflammatory activity in human THP-1 monocytes assessed as decrease in IL-6 production at 10 uM incubated for 24 hrs in the presence of N-(adamantan-1-yl)-4-(pentylamino)-[1,1'-biphenyl]-3-carboxamide by ELISA coupled qRT-PCR analysis; assay type: functional, cell-based
THP-1 [22] = test: Antiinflammatory activity in human THP-1 monocytes assessed as decrease in TNF-alpha production at 10 uM incubated for 24 hrs in the presence of JTE907 by ELISA coupled qRT-PCR analysis; assay type: functional, cell-based
THP-1 [23] = test: Antiinflammatory activity in human THP-1 monocytes assessed as decrease in IL-6 production at 10 uM incubated for 24 hrs in the presence of JTE907 by ELISA coupled qRT-PCR analysis; assay type: functional, cell-based
THP-1 [24] = test: Antiinflammatory activity in human THP-1 monocytes assessed as increase in IL-4 production at 10 uM incubated for 24 hrs in the presence of JTE907 by ELISA coupled qRT-PCR analysis; assay type: functional, cell-based
THP-1 [25] = test: Antiinflammatory activity in LPS-activated PMA-differentiated human THP-1 macrophages assessed as decrease in IFN-gamma production at 10 uM incubated for 24 hrs in the presence of JTE907 by ELISA coupled qRT-PCR analysis; assay type: functional, cell-based
THP-1 [26] = test: Antiinflammatory against LPS-activated human THP-1 monocytes assessed as decrease in IFN-gamma production at 10 uM incubated for 24 hrs in the presence of JTE907 by ELISA coupled qRT-PCR analysis; assay type: functional, cell-based
THP-1 [27] = test: Antiinflammatory against LPS-activated human THP-1 monocytes assessed as decrease in TNF-alpha production at 10 uM incubated for 24 hrs in the presence of JTE907 by ELISA coupled qRT-PCR analysis; assay type: functional, cell-based

Chain of Cannabinoid receptor 2 (P34972 whole entry): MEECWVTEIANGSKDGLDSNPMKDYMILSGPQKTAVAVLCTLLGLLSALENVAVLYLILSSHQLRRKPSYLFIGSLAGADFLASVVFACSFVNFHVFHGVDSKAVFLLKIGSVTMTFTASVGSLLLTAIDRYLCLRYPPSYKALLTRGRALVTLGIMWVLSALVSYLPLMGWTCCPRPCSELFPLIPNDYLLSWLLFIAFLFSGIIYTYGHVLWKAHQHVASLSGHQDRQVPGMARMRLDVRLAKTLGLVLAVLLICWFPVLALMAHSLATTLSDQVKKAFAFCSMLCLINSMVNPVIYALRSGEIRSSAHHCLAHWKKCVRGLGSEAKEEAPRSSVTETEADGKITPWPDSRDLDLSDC

With `CCCCCNc1ccccc1C(=O)NC12CC3CC(CC(C3)C1)C2` the Activity (THP-1 [1]) was 70%, the Activity (THP-1 [2]) was “Active” and the Emax (Cannabinoid receptor 2) was 77.2%. For the same compound, the Activity (THP-1 [3]) was “inactive”, the Activity (THP-1 [4]) was “inactive” and the Activity (THP-1 [5]) was “inactive”. The Activity (THP-1 [6]) was 50%, the Activity (THP-1 [7]) was “Dose-Dependent Effect” and the Activity (THP-1 [8]) was “Dose-Dependent Effect”. For the same compound, the Activity (THP-1 [9]) was “inactive”, the Activity (THP-1 [10]) was “inactive” and the Activity (THP-1 [11]) was 70%. For the same compound, the Activity (THP-1 [12]) was “inactive” and the Activity (THP-1 [13]) was “inactive”.

With `O=C(NC1CCCCC1)c1cn(CCN2CCOCC2)c2cc(Cl)ccc2c1=O` the Activity (THP-1 [14]) was “Active”, the Activity (THP-1 [15]) was “inactive” and the Activity (THP-1 [16]) was “inactive”. For the same compound, the Activity (THP-1 [17]) was “inactive”, the Activity (THP-1 [18]) was “inactive” and the Activity (THP-1 [19]) was 50%. The Activity (THP-1 [20]) was “inactive”, the Activity (THP-1 [21]) was “inactive” and the Activity (THP-1 [22]) was “inactive”. The Activity (THP-1 [23]) was “inactive”, the Activity (THP-1 [24]) was “inactive” and the Activity (THP-1 [25]) was “inactive”. The Activity (THP-1 [26]) was “inactive” and the Activity (THP-1 [27]) was “inactive”.
